The subject of series [1] is Panc1 cells. Briefly: Cell proliferation (cell counting) of Panc1 cells after siRNA transfection. The settings on record: vs control oligonucleotide. The class given is cell-based, human. How it is done: Cell proliferation and fluorescence-activated cell sorting analysis and apoptosis: Cells were seeded in 12-well plates and transfected with either appropriate siRNA or expression vectors, and cell numbers were counted at the indicated times using a Coulter Z1 cell counter (Beckman Coulter, Fullerton, Calif., USA). For fluorescence-activated cell sorting analysis, after pancreatic cancer cells were transfected with siRNAs for either control or HOTAIR, cells were stained with propidium iodide solution and were analyzed on a FACS Calibur Flow Cytometer (Becton Dickinsin Systems, Franklin Lakes, N.J., USA).

For series [2], the system named is Panc28 cells. Briefly: Cell proliferation of Panc28 cells after siRNA transfection. The class given is cell-based, human. As to conditions: 48 and 72 hours, vs siLamin.
Series [3] concerns HOTAIR. Briefly: HOTAIR expression (RNA levels, real time PCR) in Panc1 cells. The class given is cell-based, human. The settings on record: for HOTAIR expression after siRNA transfection: vs siCT. On the procedure:
(§1) RNA isolation and quantitative PCR: Total RNA was extracted either from pancreatic cancer cell lines or from tissue samples. Five control and siRNA HOTAIR-transfected tissue samples were analyzed, respectively, from xenograft study using mirVana RNA isolation kit from Ambion (Austin, Tex., USA), and quantitative PCR was carried out using iCycler IQTM real-time PCR detection system (Bio-Rad, Hercules, Calif., USA) after reverse transcription to cDNAs. The RT primer sets for HOTAIR, PCDHB5, PCDH10, JAM2, LAMB3, ABL2, SNA1 and LAMC2 were used as described previously (Gupta, R. A., et al., “Long Non-Coding RNA HOTAIR Reprograms Chromatin State to Promote Cancer Metastasis,” Nature 464:1071-1076, 2010). The forward and reverse oligonucleotide primer sequences specifically for HOTAIR amplification and detection are also set forth herein as SEQ ID NOS:1 and 2, respectively.
Background: Real-time PCR tracks product formation cycle by cycle.

In series [4] the test system is Sp1, Sp3, and Sp4 mRNA. Briefly: Sp1, Sp3, Sp4 mRNA knockdown in Panc1 cells. The series is classed as cell-based, human. As to conditions: vs siCT. The source says:
(§2) Using short interfering RNAs corresponding to SpTF genes for RNAi assays, expression of the SpTF were successfully knocked down. Sp1 was knocked down using an oligonucleotide with a sequence set forth herein as SEQ ID NO:19. Sp3 was knocked down using an oligonucleotide with a sequence set forth herein as SEQ ID NO:20. Sp4 was knocked down using an oligonucleotide with a sequence set forth herein as SEQ ID NO:21. […] FIG. 6B. In this assay, HOTAIRM was amplified and detected using forward and reverse oligonucleotide sequences set forth herein as SEQ ID NOS:3 and 4, respectively. Additionally, HOTTIP was amplified and detected using forward and reverse oligonucleotide sequences set forth herein as SEQ ID NOS:10 and 11, respectively.

Series [5] concerns HOTAIRM1. Briefly: HOTAIRM1 expression in Panc1 cells. The class given is cell-based, human.
Text: as §2

Series [6] has as its system HOTTIP. Briefly: HOTTIP expression in Panc1 cells. The series is classed as cell-based, human.
Text: as §2

Series [7] deals with miR-21 and miR-181b. Briefly: Oncogenic miR levels in L3.6pL cells (real time PCR). The settings on record: 100 nM siRNA. The class given is cell-based. On the procedure: (§3) Panc28 and L3.6pL pancreatic cancer cell lines were seeded (6×10^4 per well) in 6-well plates in DMEM:Ham's F-12 medium supplemented with 2.5% charcoal-stripped FBS without antibiotic and left to attach for 1 d. Single and triple Sp siRNA knockdown (iSp1, iSp3, iSp4) along with iLamin as control was performed using LipofectAMINE™2000 transfection reagent as per the manufacturer's protocol to attain 100 nM concentration of siRNA in the media. Cells were left with the transfection mixture for 24-48 hrs before changing to fresh 2.5% DMEM-F12 media. Cells were harvested after 60-72 hrs for protein, mRNA or miRNA. miRNA was extracted using mirVana™ miRNA extraction kit (Applied Biosystems) according to manufacturer's protocol and was used to assess expression of various non-coding RNAs using different primers and determined by real-time PCR.

Series [8] relates to miR-21 and miR-181b. Briefly: Oncogenic miR levels in Panc28 cells (real time PCR). The series is classed as cell-based, human. As to conditions: 100 nM siRNA. On the procedure:
as §3

The test system of series [9] is Sp1, Sp3, and Sp4 proteins. Briefly: Sp1, Sp3 and Sp4 protein expression in Panc1 cells. The series is classed as cell-based, human.
Series [10] deals with ZBTB10. Briefly: ZBTB10 expression in Panc1 cells. The class given is cell-based, human.
Series [11] relates to miR-27a. Briefly: miR-27a expression in Panc1 cells. The class given is cell-based, human.
Series [12] relates to MALAT-1. Briefly: MALAT-1 expression (RNA abundance) in Panc1 cells. The series is classed as cell-based, human. The settings on record: doses of 5.0 and 7.0 μM. On the procedure:
(§4) MALAT-1 RNA was detected using forward and reverse oligonucleotides with sequences set forth herein as SEQ ID NOS:7 and 8. Furthermore, MALAT-1 can be detected in serum obtained from pancreatic cancer patients (not shown) and this correlates with the reported high expression of MALAT-1 in pancreatic tumors compared to non-tumor tissues. Subsequent MALAT-1 knockdown studies with RNA interference were conducted using two oligonucleotides (siMALAT-1a and siMALAT-1b), the sequences of which are set forth herein as SEQ ID NOS:5 and 6, respectively. […] Thus, MALAT-1 and MALAT-1-regulated genes play a role in pancreatic cancer cell growth. […] Additional studies on the role of MALAT-1 in cell survival and kinase signaling were performed, because both pathways are affected, in part, by overexpression of growth factors and activating RAS mutations. These aspects are common in many pancreatic cancer cell lines and tumors.

For series [13], the system named is MALAT-1. Briefly: MALAT-1 expression (RNA abundance) in L3.6pL cells. The settings on record: doses of 5.0 and 7.0 μM. The class given is cell-based. On the procedure:
as §4

In series [14] the test system is ROS. Briefly: ROS induction in pancreatic cancer cells. The class given is cell-based. As to conditions: pancreatic cancer cells (data not shown).
The subject of series [15] is miR-27a, ZBTB10. As to conditions: colon cancer cells; cited from earlier work.
The subject of series [16] is cyclin D1 and cyclin E. Briefly: Cyclin D1 and cyclin E mRNA in Panc1 cells. The class given is cell-based, human. The settings on record: Panc1 cells (FIG. 2C). On the procedure: as §1
The subject of series [17] is cyclin D1 and cyclin E. Briefly: Cyclin D1 and cyclin E mRNA in L3.6pL cells. The settings on record: L3.6pL cells (FIG. 2D). The series is classed as cell-based. How it is done:
as §1

In series [18] the test system is Panc1 cells. Briefly: Annexin V apoptosis assay, Panc1. The class given is cell-based, human. As to conditions: Panc1 cells transfected with siRNA. On the procedure:
(§5) Boyden chamber cell invasion and apoptosis assays: Pancreatic cancer cells were transfected with either siRNAs (HOTAIR vs. control) or expression vectors (empty vs. HOTAIR) and cell invasion assay was performed as described previously. Cells were transfected with siCT or siHOTAIR and after 72 h, cells were stained for Annexin V using the Vibrant apoptosis assay kit as described.

Series [19] concerns L3.6pL cells. Briefly: Annexin V apoptosis assay, L3.6pL. The class given is cell-based. The settings on record: L3.6pL cells transfected with siRNA. How it is done:
as §5

The test system of series [20] is L3.6pL cells. Briefly: Xenograft of siRNA-transfected L3.6pL cells in nude mice. The class given is in vivo. As to conditions: vs siCT. How it is done:
Xenograft study: L3.6pL cells (6×10^4 ml) were transfected with 100 nM siHOTAIR or siCT using Lipofectamine. After 48 h cells were collected and 1×10^6 cells injected into either side of the flank area of female nude mice (Harlan), and tumor volumes and weights were determined in mice from the siHOTAIR (six mice) or siCT (six mice) groups as described, and siHOTAIR levels were determined by realtime PCR. Tumor volumes were measured (0.5×length×width^2) and after 16 days, the mice were killed and tumor weights were measured and also used for further analysis as described.
Immunohistochemistry and TUNEL assay: Tissue sections were deparaffinized in xylene and treated with graded series of alcohol and rehydrated in PBS. Antigen retrieval was done using 10 mM sodium citrate (pH 6.0-6.2) and endogenous peroxidase was blocked by 3% hydrogen peroxide in methanol for 6 min. Slides were then incubated with blocking serum (Vecstatin ABC Elite kit, Vector Laboratories, Burlingame, Calif., USA) for 45 min. Samples were then incubated overnight with Ki-67 and PCNA antibodies at 4° C. Sections were then washed in PBST and then incubated with biotinylated secondary antibody followed by streptavidin. The brown staining specific for antibody binding was developed by exposing the avidin and biotinylated peroxidase complex to diaminobenzidine reagent (Vector Laboratories) and sections were then counterstained with hematoxylin (Vector Laboratories). The in situ cell death detection POD kit was used for the TUNEL assay according to the instructions in the protocol for tissue sections.

The test system of series [21] is GDF15 promoter. Briefly: GDF15 promoter luciferase assay in Panc1 cells. The class given is cell-based, human. On the procedure: siRNA transfection and luciferase assay: Pancreatic cancer cells were transfected with 100 nM of control siRNA or HOTAIR siRNA I (available from Sigma Aldrich, catalogue No. SASI_Hs02—00380445) or HOTAIR siRNA II (available from Sigma Aldrich, catalogue No. SASI_Hs02—00380446) using Lipofectamine 2000 (Invitrogen, Grand Island, N.Y., USA). Panc1 cells were cotransfected with control siRNA or HOTAIR siRNA I and HOTAIR II, and various length of GDF15 luciferase constructs. Luciferase activities were measured after 24 h as described previously. MISSION siRNAs for EZH2 and Suz12 were also purchased from Sigma Aldrich.

“siMALAT-1a: siRNA for MALAT-1 knockdown, SEQ ID NO:5 (GGCAAUAGAGGCCCUUAA; listed as RNA, chemistry not given here)”: in series [1], the “cell proliferation / cell growth” value is recorded as “significant inhibition”. Further, the cell proliferation result in series [2] is on record as “significant inhibition”.
Turning to “siSp3: siRNA for Sp3, sequence SEQ ID NO:20 (GCGGCAGGUGGAGCCUUCACUTT; chemistry not given here)”, the “HOTAIR expression after siRNA transfection” value in series [3] is listed as “significant decrease”. In addition, the “mRNA level of the respective Sp (Sp1, Sp3, Sp4)” value in series [4] is “decreased”. Further, the HOTAIRM1 expression entry in series [5] is “significant decrease”. Moreover, the HOTTIP expression entry in [6] is “significant decrease”. Further, in series [7], the miR-21 expression entry was “decrease” and the miR-181b expression result was “decrease”. Besides, in series [8], the miR-21 expression result is “decrease” and the miR-181b expression result is recorded as “decrease”.
Take `COC(=O)[C@@]1(C)CCC2(C)CC[C@]3(C)C(=CC(=O)[C@@H]4C5(C)C=C(C#N)C(=O)C(C)(C)[C@@H]5CCC43C)C2C1` (stereo partly drawn) [CDODA-Me, methyl 2-cyano-3,11-dioxo-18β-olean-1,12-dien-30-oate]: the HOTAIR expression result in series [3] (drug treatment, 24 hrs (FIG. 7B)) was “decreased”. The “Sp1, Sp3, and Sp4 proteins” value in [9] (24 hrs (FIG. 7A)) was “downregulate”. For the same compound, in [9] (48 hrs), the “Sp proteins after 48 hrs” value is “almost non-detectable”. In addition, the “induction of ZBTB10, downregulation of miR-27a and repression of Sp1, Sp3, Sp4 after cotreatment with antioxidants” value in series [9] (cotreatment with DTT or GSH) is “inhibited”. In addition, the ZBTB10 expression result in series [10] is recorded as “induction”. The miR-27a entry in [11] is “downregulation”. The MALAT-1 expression entry in series [12] is “significantly downregulate”. The MALAT-1 expression entry in [13] is given as “significantly downregulate”. For the same compound, the ROS result in series [14] is recorded as “induce ROS”. In [15], the ZBTB10 entry was “increased” and the “microRNA (miR)-27a” value was “decreased”.
As for “siMALAT-1b: siRNA for MALAT-1 knockdown, SEQ ID NO:6 (GAAUUCCGGUGAUGCGAGU; listed as RNA, chemistry not given here)”, in [1], the “cell proliferation / cell growth” value is “significant inhibition”. Also, the cell proliferation result in [2] was “significant inhibition”.
As to “siSp4: siRNA for Sp4, sequence SEQ ID NO:21 (GCAGUGACACAUUAGUGAGCTT; chemistry not given here)”, in series [3], the “HOTAIR expression after siRNA transfection” value was “significant decrease”. The “mRNA level of the respective Sp (Sp1, Sp3, Sp4)” value in series [4] is “decreased”. The HOTAIRM1 expression entry in series [5] is recorded as “significant decrease”. Besides, the HOTTIP expression result in [6] is “significant decrease”. Besides, in [7], the miR-21 expression entry is “decrease” and the miR-181b expression entry is given as “decrease”. Further, in [8], the miR-21 expression entry is on record as “decrease” and the miR-181b expression entry is “decrease”.
Consider “siHOTAIR II: HOTAIR siRNA II, Sigma Aldrich catalogue No. SASI_Hs02—00380446 (UGAACACGACUUGGUGUGGTT; chemistry not given here)”, for which the “expression of cyclin D1 and cyclin E” value in series [16] and in series [17] was “decreased expression” each time. The “Annexin V staining (apoptosis)” value in series [18] and in series [19] was “enhanced” throughout. Moreover, the pancreatic tumor weight result in series [20] (after 16 days) was “dramatic decrease”. Also, in [20] (end of study), the “HOTAIR expression in tumors” value is reported as “dramatic decrease”. In addition, the pancreatic tumor volume result in series [20] (up to 16 days) is given as “dramatic decrease”. In addition, the “luciferase activity, GDF15 promoter constructs -3500 to +41, -1086 to +41 and -474 to +41” value in [21] was “decreased”.

The record behind these values is patent US8957042B2, “Cancer treatment targeting non-coding RNA overexpression” (The Texas A&M University System, priority 2012, dated 2015).
